Results: USRE47193E1, “Selectively substituted quinoline compounds” (EISAI R&D MANAGEMENT CO., LTD., priority 2013, dated 2019)
Where two headings read alike, the source gives them in different places.

Legend:
[1] = target: T1, mouse TLR7 (Mus musculus, UniProt P58681); assay: Short-term in vivo (STIV) assay: oral dosing, R848 s.c., plasma IL-6; design: female BALB/c mice (Jackson Labs, Bar Harbor, Me.) were dosed by oral gavage; tissue Jackson Labs; host or cells: living female BALB/c mice; plasma IL-6 after s.c. R848
T1 sequence (P58681 27-1050): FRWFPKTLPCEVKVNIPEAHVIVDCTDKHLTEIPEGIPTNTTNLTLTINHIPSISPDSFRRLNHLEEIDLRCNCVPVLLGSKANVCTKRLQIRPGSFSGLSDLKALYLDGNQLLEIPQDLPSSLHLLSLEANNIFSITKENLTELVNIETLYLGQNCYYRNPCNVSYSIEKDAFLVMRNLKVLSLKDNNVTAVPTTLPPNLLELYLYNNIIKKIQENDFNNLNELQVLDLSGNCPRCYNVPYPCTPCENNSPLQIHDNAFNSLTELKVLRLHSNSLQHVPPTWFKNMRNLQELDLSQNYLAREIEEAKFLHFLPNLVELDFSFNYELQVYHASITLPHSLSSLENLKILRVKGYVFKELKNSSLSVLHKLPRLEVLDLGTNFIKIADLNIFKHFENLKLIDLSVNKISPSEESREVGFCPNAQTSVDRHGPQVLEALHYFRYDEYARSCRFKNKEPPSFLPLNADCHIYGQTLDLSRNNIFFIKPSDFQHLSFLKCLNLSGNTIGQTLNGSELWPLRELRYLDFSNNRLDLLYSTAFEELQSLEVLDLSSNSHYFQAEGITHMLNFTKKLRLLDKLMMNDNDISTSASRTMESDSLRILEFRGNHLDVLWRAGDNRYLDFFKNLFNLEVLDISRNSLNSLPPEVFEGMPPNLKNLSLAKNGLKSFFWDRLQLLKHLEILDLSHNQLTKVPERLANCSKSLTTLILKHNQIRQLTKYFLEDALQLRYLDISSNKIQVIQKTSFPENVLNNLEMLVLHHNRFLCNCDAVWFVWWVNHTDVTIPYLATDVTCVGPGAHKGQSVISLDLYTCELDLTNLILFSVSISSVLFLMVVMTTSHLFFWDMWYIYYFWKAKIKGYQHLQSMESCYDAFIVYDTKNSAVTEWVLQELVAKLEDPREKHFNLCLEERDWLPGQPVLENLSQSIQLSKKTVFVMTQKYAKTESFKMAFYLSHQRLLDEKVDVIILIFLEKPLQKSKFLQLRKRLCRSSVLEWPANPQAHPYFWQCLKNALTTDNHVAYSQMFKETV
Protocol: Figure Legend: Female BALB/c mice were dosed by oral gavage with Vehicle alone (0.5% aqueous methyl-cellulose) or compound formulated in Vehicle at 33 mg/kg, 100 mg/kg or 300 mg/kg. […] (FIG. 1A).
Short-term in vivo (STIV) assay: To assess compound potency in vivo against mouse TLR7, a short-term in vivo (STIV) assay was utilized. Briefly, mice were orally dosed with compounds and at various time points afterwards were injected subcutaneously with agonist R848 to stimulate TLR7. The plasma IL-6 level following R848 stimulation was then measured by ELISA to assess compound potency and duration-of-action.
Short-term in vivo (STIV) assay. Six to eight week old female BALB/c mice (Jackson Labs, Bar Harbor, Me.) were dosed by oral gavage in 200 ul volume with antagonist compounds formulated in 0.5% aqueous methyl-cellulose (Sigma, St. Louis, Mo.). At various time points afterwards, mice were injected subcutaneously (s.c.) in 100 ul volume with 15 ug R848 (Resiquimod; GLSynthesis, Worcester, Mass.) to stimulate TLR7.

[2] = tested on: Human TLR7/8; assay: Human PBMC cell-based assay, TLR7/8 stimulus (RNA-Ig), cytokine ELISA
Method in brief: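 Healthy-donor human PBMC, 2×10^5 cells/well (1×10^5 in later assay), pre-treated 30 min with compound (0.1% DMSO). Stimulated 20 h at 37 °C with RNA-Ig: 26-mer U1 snRNA stem loop IV phosphorothioate RNA at 2.5 μM plus anti-ssDNA antibody (1:25 or 1 ug/ml). Supernatant cytokines by ELISA.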

[3] = primary human PBMC assay, TLR7/8 potency; ligand not given; read-out: Human PBMCs IC50

| SMILES | % Suppression vs. Vehicle ([1]; 6 h, 100 mg/kg) | % Suppression vs. Vehicle ([1]; 13 h, 100 mg/kg) | IC50 [2, 3] | % Suppression vs. Vehicle ([1]; 13 h, 33 mg/kg) | % Suppression vs. Vehicle ([1]; 24 h, 33 mg/kg) | % Suppression vs. Vehicle ([1]; 24 h, 100 mg/kg) | % Suppression vs. Vehicle ([1]; 6 h, 33 mg/kg) | % Suppression vs. Vehicle ([1]; 13 h, 300 mg/kg) | % Suppression vs. Vehicle ([1]; 24 h, 300 mg/kg) | also measured |
| --- | --- | --- | --- | --- | --- | --- | --- | --- | --- | --- |
| CC1CN(c2ccc(C#N)c3ncccc23)CC(C(=O)NC2CNCC2F)O1 (stereo not shown) [ER-899476] | 99% | 65% |  |  |  |  |  |  |  | IC50 ([2]; read-out: Human PBMCs IC50; primary human PBMC assay, TLR7/8 potency; ligand not given): 3 nM |
| C[C@@H]1CN(c2ccc(C#N)c3ncccc23)C[C@H](C(=O)N[C@@H]2CCCN(C)C2)O1 [ER-899337] | 99% | 30% | 2 nM |  |  |  |  |  |  |  |
| CC1CN(c2ccc(C#N)c3ncccc23)CC(C(=O)NC2CCOCC2)O1 (stereo not shown) [ER-899122] |  | 100% | 80 nM | 90% | 15% | 89% |  |  |  | % Suppression vs. Vehicle ([1]; 6 h, 11 mg/kg): 98%; % Suppression vs. Vehicle ([1]; 13 h, 11 mg/kg): 37%; % Suppression vs. Vehicle ([1]; 24 h, 11 mg/kg): 0% |
| CCNC(=O)C1CN(c2ccc(C#N)c3ncccc23)CC(C)O1 (stereo not shown) [ER-894550] |  | 97% | 97 nM | 72% | 48% | 71% | 98% | 99% | 99% |  |
| CC1CN(c2ccc(C#N)c3ncccc23)CC(C(=O)NCC2CNCCO2)O1 (stereo not shown) [ER-898694] |  | 36% | 2 nM | 2% | 0% | 0% | 93% | 53% | 35% |  |
| CC1CN(c2ccc(C#N)c3ncccc23)CC(C(=O)N2CC3(CCNC3)C2)O1 (stereo not shown) [ER-899017] |  | 0% | 4 nM | 0% |  | 0% | 34% | 10% | 0% |  |
| C[C@@H]1CN(c2ccc(C#N)c3ncccc23)C[C@H](C(=O)N(C)[C@H]2CCCNC2)O1 [ER-899619] | 79% | 35% | 33 nM |  |  |  |  |  |  |  |
| CC1CN(c2ccc(C#N)c3ncccc23)CC(C(=O)NC2CCCNCC2)O1 (stereo not shown) [ER-899417] | 71% | 0% | 1 nM |  |  |  |  |  |  |  |
| CC1CN(c2ccc(C#N)c3ncccc23)CC(C(=O)NC2CNCCC2F)O1.Cl (mixture of isomers) [ER-899477] | 96% | 68% | 6 nM |  |  |  |  |  |  |  |
| C[C@@H]1CN(c2ccc(C#N)c3ncccc23)C[C@H](C(=O)NC2CCN(CC(N)=O)CC2)O1 [ER-899481] | 54% | 5% | 8 nM |  |  |  |  |  |  |  |
| Cc1cc(CO)cc(-c2ccc(C#N)c3ncccc23)c1 [ER-888201] | 50% |  | 4 nM |  |  |  | 35% |  |  | % Suppression vs. Vehicle ([1]; 6 h, 300 mg/kg): 40%; % Suppression vs. Vehicle ([1]; 19 h, 33 mg/kg): 45%; % Suppression vs. Vehicle ([1]; 19 h, 100 mg/kg): 71%; % Suppression vs. Vehicle ([1]; 19 h, 300 mg/kg): 79% |
| CC1CN(c2ccc(C#N)c3ncccc23)CC(C(=O)NCC(C)(C)N(C)C)O1 (stereo not shown) [ER-898566] | 99% | 86% | 11 nM | 73% | 0% | 30% | 100% | 98% | 100% |  |
| CC1CN(c2ccc(C#N)c3ncccc23)CC(C(=O)N2CCC3(CCNCC3)CC2)O1 (stereo not shown) [ER-899193] | 43% | 52% | 9 nM |  |  |  |  |  |  |  |
| CC(C)N1CCN(C[C@H]2CN(c3ccc(C#N)c4ncccc34)C[C@@H](C)O2)CC1 [ER-888322] | 100% |  | 18 nM |  |  |  | 99% |  |  | % Suppression vs. Vehicle ([1]; 6 h, 300 mg/kg): 100%; % Suppression vs. Vehicle ([1]; 19 h, 33 mg/kg): 24%; % Suppression vs. Vehicle ([1]; 19 h, 100 mg/kg): 82%; % Suppression vs. Vehicle ([1]; 19 h, 300 mg/kg): 100% |
| C[C@@H]1CN(c2ccc(C#N)c3ncccc23)C[C@H](C(=O)N[C@@H]2CNC[C@@H]2F)O1.Cl [ER-899745] | 100% | 5% | 4 nM |  |  |  |  |  |  |  |
| C[C@@H]1CN(c2ccc(C#N)c3ncccc23)C[C@H](C(=O)N(C)[C@@H]2CCCNC2)O1 [ER-899616] | 79% | 27% | 54 nM |  |  |  |  |  |  |  |
| CC1CN(c2ccc(C#N)c3ncccc23)CC(CN2CCNC(C)C2C)O1 (stereo not shown) [ER-887137] | 100% |  | 2 nM |  |  |  | 99% |  |  | % Suppression vs. Vehicle ([1]; 3 h, 33 mg/kg): 100%; % Suppression vs. Vehicle ([1]; 3 h, 100 mg/kg): 100%; % Suppression vs. Vehicle ([1]; 3 h, 300 mg/kg): 100%; % Suppression vs. Vehicle ([1]; 6 h, 300 mg/kg): 100%; % Suppression vs. Vehicle ([1]; 19 h, 33 mg/kg): 38%; % Suppression vs. Vehicle ([1]; 19 h, 100 mg/kg): 63%; % Suppression vs. Vehicle ([1]; 19 h, 300 mg/kg): 100% |
| CC[C@H]1CN(C[C@H]2CN(c3ccc(C#N)c4ncccc34)C[C@@H](C)O2)CCN1C [ER-890964] |  |  | 1 nM |  |  |  |  |  |  | % Suppression vs. Vehicle ([1]; 3 h, 33 mg/kg): 96%; % Suppression vs. Vehicle ([1]; 19 h, 33 mg/kg): 0% |
| CC1CN(c2ccc(C#N)c3ncccc23)CC(C(=O)NCC2CCCN2)O1 (stereo not shown) [ER-897969] |  | 54% | 7 nM | 29% | 0% | 4% | 0% | 71% | 29% |  |
| CC1CN(c2ccc(C#N)c3ncccc23)CC(CN2CCC(NC(=O)c3ccccc3)CC2)O1 (stereo not shown) [ER-888321] | 100% | 100% | 22 nM | 87% |  |  | 86% |  |  | % Suppression vs. Vehicle ([1]; 3 h, 33 mg/kg): 98%; % Suppression vs. Vehicle ([1]; 3 h, 100 mg/kg): 100%; % Suppression vs. Vehicle ([1]; 19 h, 33 mg/kg): 59%; % Suppression vs. Vehicle ([1]; 19 h, 100 mg/kg): 59% |
| CC1CN(c2ccc(C#N)c3ncccc23)CC(C(=O)NC2CCNCC2)O1 (stereo not shown) [ER-898946] |  | 16% | 2 nM | 2% | 28% | 0% | 61% | 55% | 34% |  |
| CC1CN(c2ccc(C#N)c3ncccc23)CC(C(=O)NC2CCCNC2)O1 (stereo not shown) [ER-897968] |  | 35% | 1 nM | 3% | 0% | 8% | 81% | 85% | 80% |  |
| CC1CN(c2ccc(C#N)c3ncccc23)CC(C(=O)Nc2cnn(C3CCNCC3)c2)O1 (stereo not shown) [ER-899285] | 75% | 0% | 7 nM |  |  |  |  |  |  |  |
